Structures are written as SMILES. Structures can show the parent of a compound that is named as a salt.

In the first assay the target is T1, Smoothened (SMO) (Mus musculus, UniProt P56726).
T1 construct: C3H10T1/2 cells (ATCC #CCL-226) were split and seeded; endogenous in cells; host or cells: C3H10T1/2 (ATCC #CCL-226)
T1 sequence (P56726 33-793): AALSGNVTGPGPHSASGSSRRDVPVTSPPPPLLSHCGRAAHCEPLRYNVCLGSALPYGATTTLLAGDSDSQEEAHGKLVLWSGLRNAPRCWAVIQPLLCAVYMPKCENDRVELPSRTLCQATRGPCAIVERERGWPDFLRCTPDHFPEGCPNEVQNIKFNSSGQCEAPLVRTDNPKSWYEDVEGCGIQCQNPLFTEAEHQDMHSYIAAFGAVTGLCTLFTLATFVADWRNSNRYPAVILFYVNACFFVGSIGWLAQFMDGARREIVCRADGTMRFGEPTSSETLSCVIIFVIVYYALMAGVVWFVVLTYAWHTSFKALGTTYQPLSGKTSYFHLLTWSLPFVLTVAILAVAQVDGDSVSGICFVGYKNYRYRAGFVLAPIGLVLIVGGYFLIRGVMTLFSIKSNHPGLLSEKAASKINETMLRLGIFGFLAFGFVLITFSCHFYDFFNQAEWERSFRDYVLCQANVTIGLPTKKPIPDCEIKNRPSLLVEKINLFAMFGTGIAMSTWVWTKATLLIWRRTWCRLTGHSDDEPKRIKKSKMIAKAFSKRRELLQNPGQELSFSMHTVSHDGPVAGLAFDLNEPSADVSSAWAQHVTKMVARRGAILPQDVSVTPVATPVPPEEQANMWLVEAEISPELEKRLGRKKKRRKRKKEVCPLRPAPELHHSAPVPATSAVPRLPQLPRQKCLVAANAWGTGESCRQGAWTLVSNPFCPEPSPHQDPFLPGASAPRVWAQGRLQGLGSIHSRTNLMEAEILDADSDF
As to the kind of experiment: Smoothened (SMO)/Sonic Hedgehog (SHh) Transient Transcriptional Activation Assay (Gli-luciferase reporter in C3H10T1/2 cells). It counts as cell-based, murine. The following applies: 2 μM compound; transfected C3H10T1/2 cells, recombinant human SHh 250 ng/mL, 20 hours, luciferase readout; 2 µM. Summed up:
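C3H10T1/2 cells transiently transfected with a murine Gli-responsive firefly luciferase reporter plus pEGFP were serum-starved 20 h in 0.5% calf serum. Compound (2 μM to 2 nM final) was added with recombinant human SHh at 250 ng/mL final for 20 h at 37 °C. Read-out was Dual-Glo luminescence.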
Turning to `O=C(N[C@@H]1CN[C@H](c2nc3ccccc3[nH]2)C1)c1ccc2c(c1)OCCO2` [Example 9, N-[(3S,5S)-5-(1H-benzimidazol-2-yl)pyrrolidin-3-yl]-2,3-dihydro-1,4-benzodioxine-6-carboxamide], the “SMO CELL % INHIBITION @ 2 μM” value is recorded as 65.00%.

The assay is the same for the next values; noted with them: C3H 10T1/2, 2 μM compound; transfected C3H10T1/2 cells, recombinant human SHh 250 ng/mL, 20 hours, luciferase readout; read-out: SMO CELL % INHIBITION @ 2 μM.
In general, inhibition refers to the change of the read-out against control, counted positive when it falls. Take `CN1CC[C@@H](NC(=O)Nc2ccc(OC(F)(F)F)cc2)C[C@@H]1c1nc2ccccc2[nH]1` [Example 15, 1-[(2R,4R)-2-(1H-benzimidazol-2-yl)-1-methylpiperidin-4-yl]-3-[4-(trifluoromethoxy)phenyl]urea hydrochloride]: the inhibition at 2 µM came to 111%.

As for `Cc1ccc(NC(=O)N[C@@H]2CCN(C)[C@@H](c3nc4cc(C(F)(F)F)ccc4[nH]3)C2)cn1` [Example 128, 1-(6-methylpyridin-3-yl)-3-{(2R,4R)-1-methyl-2-[5-(trifluoromethyl)-1H-benzimidazol-2-yl]piperidin-4-yl}urea hydrochloride], the inhibition at 2 µM was found to be 102%.

In the case of `Cc1ccc2nc([C@H]3C[C@H](NC(=O)c4ccc5c(c4)OCCO5)CCN3C)[nH]c2c1` (stereo in doubt) [Example 6, 2,3-Dihydro-benzo[1,4]dioxine-6-carboxylic acid [1-methyl-2-(6-methyl-1H-benzoimidazol-2-yl)-piperidin-4-yl]-amide hydrochloride], the inhibition at 2 µM was determined as 105%.

`COc1ccc(NC(=O)N[C@@H]2CCN(C)[C@@H](c3nc4ccccc4[nH]3)C2)cc1` [Example 37, 1-[(2R,4R)-2-(1H-benzimidazol-2-yl)-1-methylpiperidin-4-yl]-3-(4-methoxyphenyl)urea hydrochloride]: the inhibition at 2 µM was 106%.

On to `Cc1ccc2[nH]c([C@H]3C[C@H](NC(=O)Nc4ccc(C#N)cc4)CCN3C)nc2c1` [Example 36, 1-(4-cyanophenyl)-3-[(2R,4R)-1-methyl-2-(5-methyl-1H-benzimidazol-2-yl)piperidin-4-yl]urea hydrochloride], for which the inhibition at 2 µM is 107%.

For the compound `Cc1ccc(NC(=O)N[C@@H]2CCN(C)[C@@H](c3nc4ccccc4[nH]3)C2)cn1` [Example 81, 1-[(2R,4R)-2-(1H-benzimidazol-2-yl)-1-methylpiperidin-4-yl]-3-(6-methylpyridin-3-yl)urea hydrochloride], the inhibition at 2 µM was 97.8%.

Take `COc1ccc(NC(=O)N[C@@H]2CCN(C)[C@@H](c3nc4cc(C(F)(F)F)ccc4[nH]3)C2)cn1` [Example 135, 1-(6-methoxypyridin-3-yl)-3-{(2R,4R)-1-methyl-2-[5-(trifluoromethyl)-1H-benzimidazol-2-yl]piperidin-4-yl}urea hydrochloride]: the inhibition at 2 µM was 104%.

As to `COc1cncc(NC(=O)N[C@@H]2CCN(C)[C@@H](c3nc4ccccc4[nH]3)C2)c1` [Example 96, 1-[(2R,4R)-2-(1H-benzimidazol-2-yl)-1-methylpiperidin-4-yl]-3-(5-methoxypyridin-3-yl)urea hydrochloride], the inhibition at 2 µM turned out to be 76.3%.

For the compound `Cc1ccc(NC(=O)N[C@@H]2CCN(C)[C@@H](c3nc4ccc(Cl)cc4[nH]3)C2)cn1` [Example 126, 1-[(2R,4R)-2-(6-chloro-1H-benzimidazol-2-yl)-1-methylpiperidin-4-yl]-3-(6-methylpyridin-3-yl)urea hydrochloride], the inhibition at 2 µM stood at 110%.

With `CN1CC[C@@H](NC(=O)c2ccc(C(=O)C(F)(F)F)cc2)C[C@@H]1c1nc2ccccc2[nH]1` [Example 68, N-[(2R,4R)-2-(1H-benzimidazol-2-yl)-1-methylpiperidin-4-yl]-4-(trifluoroacetyl)benzamide], the inhibition at 2 µM is 102%.

As for `O=C(N[C@@H]1CCN(C2CCC2)[C@@H](c2nc3ccccc3[nH]2)C1)c1ccc2c(c1)OCCO2` [Example 82, N-[(2R,4R)-2-(1H-benzimidazol-2-yl)-1-cyclobutyl-piperidin-4-yl]-2,3-dihydro-1,4-benzodioxine-6-carboxamide hydrochloride], the inhibition at 2 µM was found to be 96.8%.

Take `CN1C[C@H](NC(=O)Nc2ccc(Cl)c(C(F)(F)F)c2)C[C@H]1c1nc2ccc(F)cc2[nH]1` [Example 14, 1-[4-chloro-3-(trifluoromethyl)phenyl]-3-[(3R,5S)-5-(6-fluoro-1H-benzimidazol-2-yl)-1-methylpyrrolidin-3-yl]urea]: the inhibition at 2 µM was determined as 81.8%.

For `Cc1cc(C(=O)N[C@@H]2CCN(C)[C@@H](c3nc4ccccc4[nH]3)C2)n(C(C)(C)C)n1` [Example 124, N-[(2R,4R)-2-(1H-benzimidazol-2-yl)-1-methylpiperidin-4-yl]-1-tert-butyl-3-methyl-1H-pyrazole-5-carboxamide trifluoroacetate], the inhibition at 2 µM was 50.6%.

Take `CN1CC[C@@H](NC(=O)c2ccc3c(c2)CCO3)C[C@@H]1c1nc2ccccc2[nH]1` [Example 47, N-[(2R,4R)-2-(1H-benzimidazol-2-yl)-1-methylpiperidin-4-yl]-2,3-dihydro-1-benzofuran-5-carboxamide hydrochloride]: the inhibition at 2 µM stood at 105%.

`CN1CC[C@@H](NC(=O)Nc2ccc(C#N)cc2)C[C@@H]1c1nc2cc(C#N)ccc2[nH]1` [Example 19, 1-[(2R,4R)-2-(5-cyano-1H-benzimidazol-2-yl)-1-methylpiperidin-4-yl]-3-(4-cyanophenyl)urea hydrochloride]: the inhibition at 2 µM turned out to be 109%.

For the compound `CN1CC[C@@H](NC(=O)Nc2ccc(C#N)cc2)C[C@@H]1c1nc2ccccc2[nH]1` [Example 31, 1-[(2R,4R)-2-(1H-benzimidazol-2-yl)-1-methylpiperidin-4-yl]-3-(4-cyanophenyl)urea hydrochloride], the inhibition at 2 µM was 107%.

With `O=C(N[C@@H]1CCN(CC2CC2)[C@@H](c2nc3ccccc3[nH]2)C1)c1ccc2c(c1)OCCO2` [Example 89, N-[(2R,4R)-2-(1H-benzimidazol-2-yl)-1-(cyclopropyl-methyl)piperidin-4-yl]-2,3-dihydro-1,4-benzodioxine-6-carboxamide hydrochloride], the inhibition at 2 µM was 88.2%.

For `CN1CC[C@@H](NC(=O)Nc2ccc(F)nc2)C[C@@H]1c1nc2ccccc2[nH]1` [Example 32, 1-[(2R,4R)-2-(1H-benzimidazol-2-yl)-1-methylpiperidin-4-yl]-3-(6-fluoropyridin-3-yl)urea hydrochloride], the inhibition at 2 µM worked out at 107%.

`Cc1ccc(NC(=O)N[C@@H]2CCN(C)[C@@H](c3nc4cc(C#N)ccc4[nH]3)C2)cn1` [Example 127, 1-[(2R,4R)-2-(5-cyano-1H-benzimidazol-2-yl)-1-methylpiperidin-4-yl]-3-(6-methylpyridin-3-yl)urea hydrochloride]: the inhibition at 2 µM came out at 103%.

On to `COc1ccc2[nH]c([C@H]3C[C@H](NC(=O)Nc4ccc(C)nc4)CCN3C)nc2c1` [Example 129, 1-[(2R,4R)-2-(5-methoxy-1H-benzimidazol-2-yl)-1-methylpiperidin-4-yl]-3-(6-methylpyridin-3-yl)urea hydrochloride], for which the inhibition at 2 µM came to 104%.

Take `CN1C[C@@H](NC(=O)Nc2ccc(Cl)c(C(F)(F)F)c2)C[C@H]1c1nc2ccc(F)cc2[nH]1` [Example 58, 1-[4-chloro-3-(trifluoromethyl)phenyl]-3-[(3S,5S)-5-(6-fluoro-1H-benzimidazol-2-yl)-1-methylpyrrolidin-3-yl]urea]: the inhibition at 2 µM was found to be 104%.

Take `CN1CC[C@@H](NC(=O)c2ccc(C#N)cc2)C[C@@H]1c1nc2ccccc2[nH]1` [Example 121, N-[(2R,4R)-2-(1H-benzimidazol-2-yl)-1-methylpiperidin-4-yl]-4-cyanobenzamide trifluoroacetate]: the inhibition at 2 µM was 62.3%.

Consider `CN1CC[C@@H](NC(=O)Nc2ccccc2)C[C@@H]1c1nc2ccccc2[nH]1` [Example 75, 1-[(2R,4R)-2-(1H-benzimidazol-2-yl)-1-methylpiperidin-4-yl]-3-phenylurea hydrochloride], for which the inhibition at 2 µM came out at 100%.

`CN1CC[C@@H](NC(=O)c2ccc3c(c2Cl)OCCO3)C[C@@H]1c1nc2cc(Cl)ccc2[nH]1` [Example 145, 5-chloro-N-[(2R,4R)-2-(5-chloro-1H-benzimidazol-2-yl)-1-methylpiperidin-4-yl]-2,3-dihydro-1,4-benzodioxine-6-carboxamide triflouroacetate]: the inhibition at 2 µM came out at 106%.

With `CN1CC[C@@H](NC(=O)Cn2cc3ccccc3n2)C[C@@H]1c1nc2ccccc2[nH]1` [Example 108, N-[(2R,4R)-2-(1H-benzimidazol-2-yl)-1-methylpiperidin-4-yl]-2-(2H-indazol-2-yl)acetamide trifluoroacetate], the inhibition at 2 µM was 86.4%.

With `COc1ccc(NC(=O)N[C@@H]2CCN(C)[C@@H](c3nc4ccc(F)cc4[nH]3)C2)cn1` [Example 139, 1-[(2R,4R)-2-(6-fluoro-1H-benzimidazol-2-yl)-1-methylpiperidin-4-yl]-3-(6-methoxypyridin-3-yl)urea hydrochloride], the inhibition at 2 µM is 106%.

Consider `Cc1cc(NC(=O)N[C@@H]2CCN(C)[C@@H](c3nc4ccccc4[nH]3)C2)cnc1F` [Example 40, 1-[(2R,4R)-2-(1H-benzimidazol-2-yl)-1-methylpiperidin-4-yl]-3-(6-fluoro-5-methylpyridin-3-yl)urea hydrochloride], for which the inhibition at 2 µM was 106%.

Regarding `COc1ccc2[nH]c([C@H]3C[C@H](NC(=O)c4ccc5c(c4F)OCCO5)CCN3C)nc2c1` [Example 143, 5-fluoro-N-[(2R,4R)-2-(5-methoxy-1H-benzimidazol-2-yl)-1-methylpiperidin-4-yl]-2,3-dihydro-1,4-benzodioxine-6-carboxamide triflouroacetate], the inhibition at 2 µM was determined as 83.5%.

Source of the values: US8431597B2, “Benzimidazole derivatives” (Pfizer Inc., priority 2007, dated 2013).
